# In ChEMBL document CHEMBL4699558, “Lead optimization of 8-(methylamino)-2-oxo-1,2-dihydroquinolines as bacterial type II topoisomerase inhibitors” (Bioorg Med Chem, 2020):
# Assays:
# Escherichia coli [1] = test: Antibacterial activity against Escherichia coli ATCC 25922 in presence of PAbetaN by CLSI method; format: functional
# Staphylococcus aureus [2] = test: Antibacterial activity against Staphylococcus aureus ATCC 29213 by CLSI method; format: functional
# DNA gyrase = DNA gyrase (Escherichia coli, UniProt P0AES4+P0AES6); test: Inhibition of Escherichia coli DNA gyrase by measuring supercoiling activity incubated for 60 mins by fluorescence based assay; format: protein-complex assay
# Escherichia coli [3] = test: Antibacterial activity against Escherichia coli ATCC 25922 by CLSI method; format: functional
# Enterococcus = test: Antibacterial activity against Vancomycin-resistant Enterococcus by CLSI method; format: functional
# Streptococcus pneumoniae = test: Antibacterial activity against genotype penicillin-resistant Streptococcus pneumoniae by CLSI method; format: functional
# Staphylococcus aureus [4] = test: Antibacterial activity against Methicillin-resistant Staphylococcus aureus by CLSI method; format: functional
# [5] = Inhibition of Escherichia coli topoisomerase IV by measuring relaxation activity incubated for 30 mins by fluorescence based assay
Compound,MIC (Escherichia coli [1]),MIC (Staphylococcus aureus [2]),IC50 (DNA gyrase),MIC (Escherichia coli [3]),MIC50 (Enterococcus),MIC90 (Enterococcus),MIC50 (Streptococcus pneumoniae),MIC90 (Streptococcus pneumoniae),MIC50 (Staphylococcus aureus [4]),MIC90 (Staphylococcus aureus [4]),IC50 [5]
CNc1cc(F)cc2c(NCC3CCNCC3)c(C(=O)Nc3ccc(C(=O)O)cc3)c(=O)[nH]c12.O=CO,0.5 µg/mL,> 32 µg/mL,1.31 nM,> 32 µg/mL,–,–,–,–,–,–,–
CNCCCc1c(C(=O)Nc2ccc(C(=O)O)cc2)c(=O)[nH]c2c(NC)cc(F)cc12.O=C(O)C(F)(F)F,> 32 µg/mL,–,131 nM,> 32 µg/mL,–,–,–,–,–,–,–
CNc1cc(F)cc2c(NCCN3CCOCC3)c(C(=O)Nc3ccc(C(=O)O)cc3)c(=O)[nH]c12.O=CO,0.12 µg/mL,32 µg/mL,14.6 nM,> 64 µg/mL,–,–,–,–,–,–,–
CNc1cc(F)cc2c(NCCCN)c(C(=O)Nc3ccc(C(=O)O)cc3)c(=O)[nH]c12.O=CO,2 µg/mL,> 8 µg/mL,0.52 nM,> 8 µg/mL,–,–,–,–,–,–,–
C[C@H]1COc2c(N3CCN(C)CC3)c(F)cc3c(=O)c(C(=O)O)cn1c23.C[C@H]1COc2c(N3CCN(C)CC3)c(F)cc3c(=O)c(C(=O)O)cn1c23.O [LEVOFLOXACIN],–,–,–,–,8 µg/mL,128 µg/mL,2 µg/mL,2 µg/mL,16 µg/mL,> 128 µg/mL,–
CNc1cc(F)cc2cc(C(=O)Nc3ccc(C(=O)O)cc3CN(CC(=O)O)C3CCCCC3)c(=O)[nH]c12,0.12 µg/mL,32 µg/mL,0.57 nM,> 64 µg/mL,–,–,–,–,–,–,76.3 nM
CNCCNc1c(C(=O)Nc2ccc(C(=O)O)cc2)c(=O)[nH]c2c(NC)cc(F)cc12.O=CO,8 µg/mL,> 16 µg/mL,2.09 nM,> 16 µg/mL,–,–,–,–,–,–,–
CNc1cc(F)cc2cc(C(=O)Nc3ccc(CO)cc3CN(C)C3CCCCC3)c(=O)[nH]c12,0.06 µg/mL,4 µg/mL,1.92 nM,16 µg/mL,–,–,–,–,–,–,–
CNc1cc(F)cc2cc(C(=O)Nc3ccc(C(=O)N(C)CCN4CCOCC4)cc3)c(=O)[nH]c12,0.12 µg/mL,16 µg/mL,6.36 nM,> 16 µg/mL,–,–,–,–,–,–,–
CC1(C)S[C@@H]2[C@H](NC(=O)Cc3ccccc3)C(=O)N2[C@H]1C(=O)O [PENICILLIN G],–,–,–,–,–,–,2 µg/mL,4 µg/mL,–,–,–
CNc1cc(F)cc2c(N[C@H]3C[C@@H](N)C3)c(C(=O)Nc3ccc(C(=O)O)cc3)c(=O)[nH]c12.O=CO,1 µg/mL,> 32 µg/mL,2.66 nM,> 32 µg/mL,–,–,–,–,–,–,–
C[C@@H](O)[C@H]1C(=O)N2C(C(=O)O)=C(S[C@@H]3CN[C@H](C(=O)N(C)C)C3)[C@H](C)[C@H]12 [MEROPENEM],–,–,–,–,–,–,0.5 µg/mL,1 µg/mL,–,–,–
CNCCc1c(C(=O)Nc2ccc(C(=O)O)cc2)c(=O)[nH]c2c(NC)cc(F)cc12.O=C(O)C(F)(F)F,> 8 µg/mL,> 8 µg/mL,109 nM,> 8 µg/mL,–,–,–,–,–,–,–
CNc1cc(F)cc2c(NCC3(N)CCC3)c(C(=O)Nc3ccc(C(=O)O)cc3)c(=O)[nH]c12.O=CO,0.25 µg/mL,> 32 µg/mL,2.15 nM,> 32 µg/mL,–,–,–,–,–,–,–
CNc1cc(F)cc2cc(C(=O)Nc3ccc(C(=O)O)cc3CN(C)C3CCCCC3)c(=O)[nH]c12.Cl,≤ 0.03 µg/mL,2 µg/mL,0.53 nM,8 µg/mL,–,–,–,–,–,–,47.4 nM
CNc1cc(F)cc2cc(C(=O)Nc3ccc(C(=O)O)cc3CN(C)C3CC3)c(=O)[nH]c12,≤ 0.03 µg/mL,> 8 µg/mL,0.6 nM,> 8 µg/mL,–,–,–,–,–,–,771 nM

Compound,MIC (Escherichia coli [1]),MIC (Staphylococcus aureus [2]),IC50 (DNA gyrase),MIC (Escherichia coli [3]),MIC50 (Enterococcus),MIC90 (Enterococcus),MIC50 (Streptococcus pneumoniae),MIC90 (Streptococcus pneumoniae),MIC50 (Staphylococcus aureus [4]),MIC90 (Staphylococcus aureus [4]),IC50 [5]
CC[C@H]1OC(=O)[C@H](C)[C@@H](O[C@H]2C[C@@](C)(OC)[C@@H](O)[C@H](C)O2)[C@H](C)[C@@H](O[C@@H]2O[C@H](C)C[C@H](N(C)C)[C@H]2O)[C@](C)(O)C[C@@H](C)CN(C)[C@H](C)[C@@H](O)[C@]1(C)O [AZITHROMYCIN],–,–,–,–,–,–,> 128 µg/mL,> 128 µg/mL,–,–,–
CNc1cc(F)cc2c(O)c(C(=O)Nc3ccc(C(=O)NS(=O)(=O)N(C)C)cc3CN3CCCCC3)c(=O)[nH]c12,0.06 µg/mL,–,4.44 nM,64 µg/mL,–,–,–,–,–,–,–
CNc1cc(F)cc2cc(C(=O)Nc3ccc(C(=O)NCCN4CCOCC4)cc3)c(=O)[nH]c12,0.06 µg/mL,> 16 µg/mL,7.29 nM,4 µg/mL,–,–,–,–,–,–,1300 nM
CCCCCCCCCC(=O)N[C@@H](Cc1c[nH]c2ccccc12)C(=O)N[C@H](CC(N)=O)C(=O)N[C@@H](CC(=O)O)C(=O)N[C@@H]1C(=O)NCC(=O)N[C@@H](CCCN)C(=O)N[C@@H](CC(=O)O)C(=O)N[C@H](C)C(=O)N[C@@H](CC(=O)O)C(=O)NCC(=O)N[C@H](CO)C(=O)N[C@@H]([C@H](C)CC(=O)O)C(=O)N[C@@H](CC(=O)c2ccccc2N)C(=O)O[C@@H]1C,–,–,–,–,2 µg/mL,4 µg/mL,–,–,1 µg/mL,1 µg/mL,–
CNc1cc(F)cc2c(NCC3CNC3)c(C(=O)Nc3ccc(C(=O)O)cc3)c(=O)[nH]c12.O=CO,–,> 16 µg/mL,0.66 nM,> 16 µg/mL,–,–,–,–,–,–,–
CNc1cc(F)cc2c(NCCN)c(C(=O)Nc3ccc(C(=O)O)cc3)c(=O)[nH]c12.O=CO,4 µg/mL,> 16 µg/mL,0.94 nM,> 16 µg/mL,–,–,–,–,–,–,–
Cc1onc(-c2ccccc2)c1C(=O)N[C@@H]1C(=O)N2[C@@H]1SC(C)(C)[C@@H]2C(=O)O [OXACILLIN],–,–,–,–,–,–,–,–,> 128 µg/mL,> 128 µg/mL,–
CCCCCN(C)Cc1cc(C(=O)O)ccc1NC(=O)c1cc2cc(F)cc(NC)c2[nH]c1=O,≤ 0.03 µg/mL,0.5 µg/mL,0.21 nM,4 µg/mL,–,–,–,–,–,–,41.4 nM
CNc1cc(F)cc2cc(C(=O)Nc3ccc(C(=O)O)cc3CNCCO)c(=O)[nH]c12.Cl,2 µg/mL,> 64 µg/mL,129 nM,> 64 µg/mL,–,–,–,–,–,–,–
CNc1cc(F)cc2cc(C(=O)Nc3ccc(C(=O)O)cc3CN(CCN)C3CCCCC3)c(=O)[nH]c12.O=C(O)C(F)(F)F,16 µg/mL,> 64 µg/mL,3.68 nM,> 64 µg/mL,–,–,–,–,–,–,–
CNc1cc(F)cc2cc(C(=O)Nc3ccc(C(N)=O)cc3CN(C)C3CCCCC3)c(=O)[nH]c12,≤ 0.03 µg/mL,> 32 µg/mL,2.48 nM,> 32 µg/mL,–,–,–,–,–,–,–
CNc1cc(F)cc2cc(C(=O)Nc3ccc(C(=O)O)cc3CNC3CCCCC3)c(=O)[nH]c12.O=C(O)C(F)(F)F,0.5 µg/mL,16 µg/mL,0.26 nM,32 µg/mL,–,–,–,–,–,–,–
CNc1cc(F)cc2cc(C(=O)Nc3ccc(C(=O)O)c(O)c3)c(=O)[nH]c12,1 µg/mL,> 32 µg/mL,2.05 nM,> 32 µg/mL,–,–,–,–,–,–,–
CC(=O)NC[C@H]1CN(c2ccc(N3CCOCC3)c(F)c2)C(=O)O1 [LINEZOLID],–,–,–,–,4 µg/mL,4 µg/mL,–,–,4 µg/mL,4 µg/mL,–
CNc1cc(F)cc2cc(C(=O)Nc3cnc(C(=O)O)nc3)c(=O)[nH]c12,> 16 µg/mL,> 16 µg/mL,0.95 nM,> 16 µg/mL,–,–,–,–,–,–,32.5 nM
CNc1cc(F)cc2cc(C(=O)Nc3ccc(C(=O)NCCN)cc3)c(=O)[nH]c12.Cl,> 8 µg/mL,> 8 µg/mL,9.4 nM,> 8 µg/mL,–,–,–,–,–,–,–
